Several values for one entry are separate records, joined by “and”; a condition that tells them apart may be missing. Equal entries are not always repeated. Toxic doses and inconclusive results are not listed. Rule for the calls: active = survival T/C of 150% or more; inactive = T/C below 125% in these data.
Tested on: P388 leukemia ip, CD2F1 mice, survival T/C
Assay: NCI In Vivo Anticancer Drug Screen. Data for tumor model P388 Leukemia (intraperitoneal) in CD2F1 (CDF1) mice
Details: endpoint: median survival time, higher = longer survival
Method in brief: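 Mice carrying the transplanted tumor received test compound or vehicle. Survival was recorded in each group, and the value is the treated-group measurement divided by that of the vehicle-treated control group.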

[1] = dose: 12.5 mg/kg/injection, schedule: Q01DX005 (ip), vehicle: saline with Tween-80
[2] = dose: 50.0 mg/kg/injection, schedule: Q01DX005 (ip), vehicle: saline with Tween-80
[3] = dose: 100.0 mg/kg/injection, schedule: Q01DX005 (ip), vehicle: saline with Tween-80
[4] = dose: 50.0 mg/kg/injection, schedule: Q01DX009 (ip), vehicle: saline
[5] = dose: 100.0 mg/kg/injection, schedule: Q01DX009 (ip), vehicle: saline
[6] = dose: 200.0 mg/kg/injection, schedule: Q01DX005 (ip), vehicle: saline with Tween-80
[7] = dose: 60.0 mg/kg/injection, schedule: Q01DX005 (ip), vehicle: saline with Tween-80
[8] = dose: 120.0 mg/kg/injection, schedule: Q01DX005 (ip), vehicle: saline with Tween-80
[9] = dose: 240.0 mg/kg/injection, schedule: Q01DX005 (ip), vehicle: saline with Tween-80
[10] = dose: 60.0 mg/kg/injection, schedule: Q01DX005 (ip), vehicle: saline
[11] = dose: 120.0 mg/kg/injection, schedule: Q01DX005 (ip), vehicle: saline
[12] = dose: 240.0 mg/kg/injection, schedule: Q01DX005 (ip), vehicle: saline
[13] = dose: 60.0 mg/kg/injection, schedule: Q01DX005 (ip), vehicle: Klucel (hydroxypropylcellulose) (HPC)
[14] = dose: 100.0 mg/kg/injection, schedule: Q04DX003 (ip), vehicle: saline with Tween-80
[15] = dose: 200.0 mg/kg/injection, schedule: Q04DX003 (ip), vehicle: saline with Tween-80
[16] = dose: 200.0 mg/kg/injection, schedule: Q01DX009 (ip), vehicle: saline
[17] = dose: 50.0 mg/kg/injection, schedule: Q01DX009 (ip), vehicle: Klucel (hydroxypropylcellulose) (HPC)
[18] = dose: 100.0 mg/kg/injection, schedule: Q01DX009 (ip), vehicle: Klucel (hydroxypropylcellulose) (HPC)
[19] = dose: 200.0 mg/kg/injection, schedule: Q01DX009 (ip), vehicle: Klucel (hydroxypropylcellulose) (HPC)
[20] = dose: 50.0 mg/kg/injection, schedule: Q01DX009 (ip), vehicle: saline with Tween-80
[21] = dose: 100.0 mg/kg/injection, schedule: Q01DX009 (ip), vehicle: saline with Tween-80
[22] = dose: 25.0 mg/kg/injection, schedule: Q01DX009 (ip), vehicle: other
[23] = dose: 50.0 mg/kg/injection, schedule: Q01DX009 (ip), vehicle: other

Measured: T/C

CN(C)[C@@H]1C(=O)C(C(N)=O)=C(O)[C@@]2(O)C(=O)C3=C(O)c4c(O)ccc(Cl)c4[C@@](C)(O)[C@H]3C[C@@H]12.[Cl][Sb]([Cl])[Cl]
inactive: [1] 108 % of control | [2] 116 % of control and 120 % of control | [3] 104 % of control

O=c1c(CO)c(-c2ccccc2)oc2ccccc12
inactive: dose: 100.0 mg/kg/injection, schedule: Q04DX002 (ip), vehicle: Klucel (hydroxypropylcellulose) (HPC) 115 % of control | dose: 200.0 mg/kg/injection, schedule: Q04DX002 (ip), vehicle: Klucel (hydroxypropylcellulose) (HPC) 98 % of control | dose: 400.0 mg/kg/injection, schedule: Q04DX002 (ip), vehicle: Klucel (hydroxypropylcellulose) (HPC) 101 % of control

Cc1ccc(S(=O)(=O)C(CC(=O)CCN(C)C)c2ccccc2)cc1 (stereo not drawn)
inactive: dose: 25.0 mg/kg/injection, schedule: Q04DX002 (ip), vehicle: saline 100 % of control | [4] 96 % of control | dose: 50.0 mg/kg/injection, schedule: Q04DX002 (ip), vehicle: saline 103 % of control and 95 % of control | [5] 102 % of control | dose: 100.0 mg/kg/injection, schedule: Q04DX002 (ip), vehicle: saline 100 % of control | dose: 200.0 mg/kg/injection, schedule: Q04DX002 (ip), vehicle: saline 100 % of control

COc1ccc2sc3cccc(NCCN(C)C)c3c(=O)c2c1
inactive: [1] 112 % of control | dose: 25.0 mg/kg/injection, schedule: Q01DX005 (ip), vehicle: saline with Tween-80 108 % of control | [2] 100 % of control and 95 % of control | [3] 98 % of control and 99 % of control | [6] 106 % of control | dose: 400.0 mg/kg/injection, schedule: Q01DX005 (ip), vehicle: saline with Tween-80 98 % of control

COc1ccc(C(c2cc3c(cc2O)OCO3)N2CCOCC2)c(OC)c1OC (stereo not drawn)
inactive: [7] 119 % of control | [8] 109 % of control | [9] 115 % of control

CCOC(=O)CC1(C)c2nc(NC(C)=O)sc2Cc2sc(NC(C)=O)nc21
inactive: [10] 101 % of control | [11] 100 % of control | [12] 100 % of control

Cc1nn2c(nnn2CCO)c1-c1ccccc1
inactive: [13] 105 % of control | dose: 120.0 mg/kg/injection, schedule: Q01DX005 (ip), vehicle: Klucel (hydroxypropylcellulose) (HPC) 91 % of control | dose: 240.0 mg/kg/injection, schedule: Q01DX005 (ip), vehicle: Klucel (hydroxypropylcellulose) (HPC) 91 % of control

Nc1ccc(C(=O)Nc2ccccc2N)cc1
inactive: [14] 100 % of control | [15] 99 % of control | dose: 400.0 mg/kg/injection, schedule: Q04DX003 (ip), vehicle: saline with Tween-80 108 % of control

CCN(CC)CCNc1cc2c(c3sc4ccccc4c(=O)c13)CCCC2
inactive: dose: 7.8 mg/kg/injection, schedule: Q01DX005 (ip), vehicle: other 113 % of control | dose: 15.6 mg/kg/injection, schedule: Q01DX005 (ip), vehicle: other 110 % of control | dose: 31.3 mg/kg/injection, schedule: Q01DX005 (ip), vehicle: other 113 % of control | dose: 62.5 mg/kg/injection, schedule: Q01DX005 (ip), vehicle: other 101 % of control | dose: 125.0 mg/kg/injection, schedule: Q01DX005 (ip), vehicle: other 104 % of control

COc1c[nH]c(CO)cc1=O
inactive: [5] 101 % of control and 104 % of control | [16] 108 % of control and 114 % of control | dose: 400.0 mg/kg/injection, schedule: Q01DX009 (ip), vehicle: saline 99 % of control and 114 % of control

CCC1OC(=O)C2C(c3ccccc3)=NOC2[C@H]1C (stereo partly drawn)
inactive: [7] 102 % of control | [8] 101 % of control | [9] 94 % of control

COc1ccc(C(=O)Nc2ccccc2-c2ccccc2)cc1OC
inactive: [2] 105 % of control | [3] 97 % of control | [6] 103 % of control

O=C1CCSC(=S)N1c1ccc(F)cc1
inactive: dose: 50.0 mg/kg/injection, schedule: Q01DX009 (ip), vehicle: suspension in saline 99 % of control | dose: 100.0 mg/kg/injection, schedule: Q01DX009 (ip), vehicle: suspension in saline 106 % of control | dose: 200.0 mg/kg/injection, schedule: Q01DX009 (ip), vehicle: suspension in saline 90 % of control

O=C(O)C1Cc2c([nH]c3ccccc23)C(C(=O)O)N1 (stereo not drawn)
inactive: dose: 50.0 mg/kg/injection, schedule: Q04DX003 (ip), vehicle: saline 95 % of control | dose: 100.0 mg/kg/injection, schedule: Q04DX003 (ip), vehicle: saline 95 % of control | dose: 200.0 mg/kg/injection, schedule: Q04DX003 (ip), vehicle: saline 93 % of control

CC1=C(C)C(=O)OC1
inactive: [10] 108 % of control | [11] 107 % of control | [12] 101 % of control

CC1=CC(=Nc2cc(Cl)c(O)c(Cl)c2)C=CC1=O
inactive: dose: 6.25 mg/kg/injection, schedule: Q01DX005 (ip), vehicle: saline 96 % of control | dose: 12.5 mg/kg/injection, schedule: Q01DX005 (ip), vehicle: saline 96 % of control | dose: 25.0 mg/kg/injection, schedule: Q01DX005 (ip), vehicle: saline 89 % of control

CN(C)CCCC12OC(c3ccccc31)C(O)c1ccccc12 (stereo not drawn)
inactive: dose: 25.0 mg/kg/injection, schedule: Q01DX009 (ip), vehicle: Klucel (hydroxypropylcellulose) (HPC) 102 % of control | [17] 103 % of control | [18] 105 % of control | [19] 94 % of control

NCc1c(Cl)c(Cl)c(Cl)c(CN)c1Cl
inactive: dose: 50.0 mg/kg/injection, schedule: Q04DX003 (ip), vehicle: saline with Tween-80 100 % of control | [14] 100 % of control | [15] 105 % of control

CNC(=O)C(C(=O)NC)c1ccccc1
inactive: dose: 100.0 mg/kg/injection, schedule: Q04DX003 (ip), vehicle: Klucel (hydroxypropylcellulose) (HPC) 95 % of control | dose: 200.0 mg/kg/injection, schedule: Q04DX003 (ip), vehicle: Klucel (hydroxypropylcellulose) (HPC) 95 % of control | dose: 400.0 mg/kg/injection, schedule: Q04DX003 (ip), vehicle: Klucel (hydroxypropylcellulose) (HPC) 96 % of control

CN(/N=C/c1ccc2c(c1)OCO2)C(=O)c1ccccc1N
inactive: [20] 108 % of control | [21] 114 % of control | dose: 200.0 mg/kg/injection, schedule: Q01DX009 (ip), vehicle: saline with Tween-80 116 % of control

CC(=O)OCC12C(=O)C(O)C(C)C3(CC(c4ccoc4)OC3OC(C)=O)C1CCCC21CO1 (stereo not drawn)
inactive: dose: 15.0 mg/kg/injection, schedule: Q01DX005 (ip), vehicle: Klucel (hydroxypropylcellulose) (HPC) 105 % of control | dose: 30.0 mg/kg/injection, schedule: Q01DX005 (ip), vehicle: Klucel (hydroxypropylcellulose) (HPC) 105 % of control | [13] 100 % of control

CC1=C(C#N)C(C)(C)C(C#N)=C(C)N1C
inactive: [22] 110 % of control | [23] 111 % of control | [20] 102 % of control | dose: 100.0 mg/kg/injection, schedule: Q01DX009 (ip), vehicle: other 121 % of control | [21] 98 % of control

COC(=O)c1cc(=O)n(-c2ccc(OC)cc2)c(SC)n1
inactive: [14] 100 % of control | [15] 91 % of control

COc1ccc(C2NC(=S)NC(=O)C2C#N)cc1OC (stereo not drawn)
inactive: [17] 98 % of control | [18] 98 % of control | [19] 95 % of control

CNC(=S)NNc1ccc(Cl)c(Cl)c1
inactive: [22] 112 % of control | [23] 108 % of control

CCOC(=O)c1ccc(N2C(=O)OC(C)(C)C2=O)cc1
inactive: dose: 50.0 mg/kg/injection, schedule: Q01DX005 (ip), vehicle: Klucel (hydroxypropylcellulose) (HPC) 103 % of control | dose: 100.0 mg/kg/injection, schedule: Q01DX005 (ip), vehicle: Klucel (hydroxypropylcellulose) (HPC) 97 % of control | dose: 200.0 mg/kg/injection, schedule: Q01DX005 (ip), vehicle: Klucel (hydroxypropylcellulose) (HPC) 101 % of control

c1ccc(C2SCCN2c2ccccc2)cc1 (stereo not drawn)
inactive: [4] 91 % of control | [5] 90 % of control | [16] 89 % of control

CS(=O)(=O)C(c1nc2n(c1O)C(=N)N=N2)c1nc2n(c1O)C(=N)N=N2 (stereo not drawn)
inactive: [10] 99 % of control | [11] 100 % of control | [12] 105 % of control

Reference: PubChem BioAssay AID330 (DTP/NCI, 2004)
